# The source made the active and inactive calls. The calls are words filed in the database; no cut-off is given here.
# Experiments:
# [1] = target: Glycogen synthase kinase-3 beta (Homo sapiens, UniProt P49841); assay: Inhibition of GSK-3beta (unknown origin) preincubated with enzyme for 10 mins followed by substrate and ATP addition measured after 60 mins by ADP-Glo reagent based assay
# [2] = Metabolic stability in human plasma assessed as half life at 2 uM incubated upto 60 mins […] by LC-MS/MS analysis; format: ADME, cell-free
# [3] = Plasma protein binding in human assessed as bound fraction at 1 uM incubated for 5 hrs by LC-MS/MS analysis; format: ADME, cell-free; settings: read-out: PPB (converted)
# [4] = Permeability of compound at pH 7.4 at 10 uM incubated for 16 hrs by PAMPA-BBB assay based LC-MS/MS analysis
# [5] = Apparent permeability across apical to basolateral side in dog MDCK-MDR1 cells at 5 uM incubated for 90 mins by LC-MS/MS analysis; format: ADME, cell-based, Canis lupus familiaris
# CYP1A2 = CYP1A2 (Homo sapiens, UniProt P05177); assay: Inhibition of CYP1A2 in human liver microsomes using phenacetin as substrate at 10 uM preincubated for 10 mins followed by NADPH addition and measured after 40 mins by LC-MS/MS analysis relative to control; format: ADME, Microsome; settings: probe phenacetin, time 50 min
# CYP2C9 = CYP2C9 (Homo sapiens, UniProt P11712); assay: Inhibition of CYP2C9 in human liver microsomes using diclofenac as substrate at 10 uM preincubated for 10 mins followed by NADPH addition and measured after 40 mins by LC-MS/MS analysis relative to control; format: ADME, Microsome; settings: probe diclofenac, time 50 min
# [6] = AUC (0 to t) in Sprague-Dawley rat at 10 mg/kg,po measured upto 24 hrs by LC-MS/MS analysis; format: ADME, organism-based; settings: in vivo
# [7] = AUC (0 to infinity) in Sprague-Dawley rat at 10 mg/kg,po measured upto 24 hrs by LC-MS/MS analysis; format: ADME, organism-based; settings: in vivo
# [8] = MRT (0 to infinity) in Sprague-Dawley rat at 10 mg/kg,po measured upto 24 hrs by LC-MS/MS analysis; format: ADME, organism-based; settings: in vivo
# [9] = Half life in Sprague-Dawley rat at 2 mg/kg,iv measured upto 24 hrs by LC-MS/MS analysis; format: ADME, organism-based; settings: in vivo
# [10] = Half life in Sprague-Dawley rat at 10 mg/kg,po measured upto 24 hrs by LC-MS/MS analysis; format: ADME, organism-based; settings: in vivo
# [11] = Cmax in Sprague-Dawley rat at 2 mg/kg,iv measured upto 24 hrs by LC-MS/MS analysis; format: ADME, organism-based; settings: in vivo
# [12] = Cmax in Sprague-Dawley rat at 10 mg/kg,po measured upto 24 hrs by LC-MS/MS analysis; format: ADME, organism-based; settings: in vivo
# [13] = Drug concentration in Sprague-Dawley rat plasma at 10 mg/kg,po measured after 1 hr by LC-MS/MS analysis; format: ADME, organism-based
# [14] = Drug concentration in Sprague-Dawley rat plasma at 10 mg/kg,po measured after 4 hrs by LC-MS/MS analysis; format: ADME, organism-based
# [15] = Drug concentration in Sprague-Dawley rat brain at 10 mg/kg,po measured after 1 hr by LC-MS/MS analysis; format: ADME, organism-based; settings: read-out: Ct
# [16] = Drug concentration in Sprague-Dawley rat brain at 10 mg/kg,po measured after 2 hrs by LC-MS/MS analysis; format: ADME, organism-based; settings: read-out: Ct
# Cytochrome P450 2C9 = Cytochrome P450 2C9 (Homo sapiens, UniProt P11712); assay: Inhibition of CYP2C9 in human liver microsomes using diclofenac as substrate preincubated for 10 mins followed by NADPH addition and measured after 40 mins by LC-MS/MS analysis; format: ADME, Microsome
# Cytochrome P450 2C19 = Cytochrome P450 2C19 (Homo sapiens, UniProt P33261); assay: Inhibition of CYP2C19 in human liver microsomes using mephenytoin as substrate preincubated for 10 mins followed by NADPH addition and measured after 40 mins by LC-MS/MS analysis; format: ADME, Microsome
# [17] = target: Dual specificity tyrosine-phosphorylation-regulated kinase 1B (Homo sapiens, UniProt Q9Y463); assay: Inhibition of DYRK1B (unknown origin) preincubated with enzyme for 10 mins followed by substrate and ATP addition measured after 60 mins by ADP-Glo reagent based assay
# [18] = target: Dual specificity tyrosine-phosphorylation-regulated kinase 4 (Homo sapiens, UniProt Q9NR20); assay: Inhibition of DYRK4 (unknown origin) preincubated with enzyme for 10 mins followed by substrate and ATP addition measured after 60 mins by ADP-Glo reagent based assay
# [19] = target: T1, Dual specificity protein kinase CLK4 (Homo sapiens, UniProt Q9HAZ1); assay: Inhibition of CLK4 (unknown origin) preincubated with enzyme for 10 mins followed by substrate and ATP addition measured after 60 mins by ADP-Glo reagent based assay
# Target sequence in this assay (Q9HAZ1 whole entry): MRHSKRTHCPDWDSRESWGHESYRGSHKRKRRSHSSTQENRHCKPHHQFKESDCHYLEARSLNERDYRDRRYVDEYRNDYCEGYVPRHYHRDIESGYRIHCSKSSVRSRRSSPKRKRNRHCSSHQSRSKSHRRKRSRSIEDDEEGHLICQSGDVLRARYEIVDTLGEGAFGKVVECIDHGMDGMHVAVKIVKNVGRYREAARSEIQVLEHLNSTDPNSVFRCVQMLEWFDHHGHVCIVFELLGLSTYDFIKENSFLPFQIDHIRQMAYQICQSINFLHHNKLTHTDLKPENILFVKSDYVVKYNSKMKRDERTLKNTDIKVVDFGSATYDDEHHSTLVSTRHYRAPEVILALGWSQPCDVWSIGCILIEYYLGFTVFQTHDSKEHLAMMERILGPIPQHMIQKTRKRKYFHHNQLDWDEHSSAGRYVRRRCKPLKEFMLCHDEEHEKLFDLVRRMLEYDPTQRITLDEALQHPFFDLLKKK
# [20] = target: Dual specificity protein kinase CLK1 (Homo sapiens, UniProt P49759); assay: Inhibition of CLK1 (unknown origin) at 1 uM preincubated with enzyme for 10 mins followed by substrate and ATP addition measured after 60 mins by ADP-Glo reagent based assay relative to control; settings: time 70.0 min
# [21] = target: T1, Dual specificity protein kinase CLK4; assay: Inhibition of CLK4 (unknown origin) at 1 uM preincubated with enzyme for 10 mins followed by substrate and ATP addition measured after 60 mins by ADP-Glo reagent based assay relative to control; settings: time 70.0 min
# Target sequence in this assay (Q9HAZ1 whole entry, looked up): as the sequence (Q9HAZ1 whole entry) above
# HEK-293T = assay: Cytotoxicity against human HEK293T cells expressing human Tau P301L mutant at 0.15625 to 10 uM incubated for 24 hrs by MTT assay; format: toxicity, cell-based; settings: dose 0.15625-10 µM
# [22] = Acute toxicity in C57BL/6 mouse assessed as change in liver weight at 500 mg/kg,po observed after 14 days; format: organism-based; settings: in vivo, 336 h, time 14 day
# [23] = Acute toxicity in C57BL/6 mouse assessed as change in kidney weight at 500 mg/kg,po observed after 14 days; format: organism-based; settings: in vivo, 336 h, time 14 day
# Mus musculus [24] = assay: Antialzheimer activity in okadaic acid-induced cognitive impairment C57BL/6 mouse assessed as decrease in learning deficit at 10 to 30 mg/kg,po once daily for 2 weeks by Morris water maze test; format: functional, organism-based; settings: dose 10-30 mg/kg
# Mus musculus [25] = assay: Antialzheimer activity in okadaic acid-induced cognitive impairment C57BL/6 mouse assessed as increase in cognitive function at 10 to 30 mg/kg,po measured after 7 days by Morris water maze test; format: functional, organism-based; settings: dose 10-30 mg/kg, time 7.0 day
# [26] = Toxicity in okadaic acid-induced cognitive impairment C57BL/6 mouse assessed as change in serum AST level at 10 to 30 mg/kg,po once daily for 2 weeks; format: organism-based; settings: in vivo, 336 h, dose 10-30 mg/kg
# [27] = Toxicity in okadaic acid-induced cognitive impairment C57BL/6 mouse assessed as change in serum ALT level at 10 to 30 mg/kg,po once daily for 2 weeks; format: organism-based; settings: in vivo, 336 h, dose 10-30 mg/kg
# [28] = Toxicity in okadaic acid-induced cognitive impairment C57BL/6 mouse assessed as change in serum AKP level at 10 to 30 mg/kg,po once daily for 2 weeks; format: organism-based; settings: in vivo, 336 h, dose 10-30 mg/kg
# [29] = Toxicity in okadaic acid-induced cognitive impairment C57BL/6 mouse assessed as change in serum TBIL level at 10 to 30 mg/kg,po once daily for 2 weeks; format: organism-based; settings: in vivo, 336 h, dose 10-30 mg/kg
# [30] = Toxicity in okadaic acid-induced cognitive impairment C57BL/6 mouse assessed as change in serum BUN level at 10 to 30 mg/kg,po once daily for 2 weeks; format: organism-based; settings: in vivo, 336 h, dose 10-30 mg/kg
# Sequence of Dual specificity tyrosine-phosphorylation-regulated kinase 1B (Q9Y463 whole entry): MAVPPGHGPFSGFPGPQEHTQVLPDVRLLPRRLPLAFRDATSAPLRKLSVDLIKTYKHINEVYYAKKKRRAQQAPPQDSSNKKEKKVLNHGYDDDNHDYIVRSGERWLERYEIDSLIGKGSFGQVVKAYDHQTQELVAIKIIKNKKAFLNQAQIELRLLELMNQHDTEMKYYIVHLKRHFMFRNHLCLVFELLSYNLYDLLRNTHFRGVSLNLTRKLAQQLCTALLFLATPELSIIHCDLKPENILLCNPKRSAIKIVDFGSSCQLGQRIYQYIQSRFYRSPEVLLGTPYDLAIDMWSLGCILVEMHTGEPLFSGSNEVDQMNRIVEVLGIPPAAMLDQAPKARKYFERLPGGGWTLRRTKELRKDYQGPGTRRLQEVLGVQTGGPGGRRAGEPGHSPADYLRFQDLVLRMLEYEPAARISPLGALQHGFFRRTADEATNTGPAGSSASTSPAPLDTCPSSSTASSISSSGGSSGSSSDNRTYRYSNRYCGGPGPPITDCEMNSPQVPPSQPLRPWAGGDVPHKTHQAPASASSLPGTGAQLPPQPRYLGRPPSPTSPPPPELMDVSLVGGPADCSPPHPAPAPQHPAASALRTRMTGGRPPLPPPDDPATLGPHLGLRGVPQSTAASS
# Sequence of CYP2C9 (P11712 whole entry): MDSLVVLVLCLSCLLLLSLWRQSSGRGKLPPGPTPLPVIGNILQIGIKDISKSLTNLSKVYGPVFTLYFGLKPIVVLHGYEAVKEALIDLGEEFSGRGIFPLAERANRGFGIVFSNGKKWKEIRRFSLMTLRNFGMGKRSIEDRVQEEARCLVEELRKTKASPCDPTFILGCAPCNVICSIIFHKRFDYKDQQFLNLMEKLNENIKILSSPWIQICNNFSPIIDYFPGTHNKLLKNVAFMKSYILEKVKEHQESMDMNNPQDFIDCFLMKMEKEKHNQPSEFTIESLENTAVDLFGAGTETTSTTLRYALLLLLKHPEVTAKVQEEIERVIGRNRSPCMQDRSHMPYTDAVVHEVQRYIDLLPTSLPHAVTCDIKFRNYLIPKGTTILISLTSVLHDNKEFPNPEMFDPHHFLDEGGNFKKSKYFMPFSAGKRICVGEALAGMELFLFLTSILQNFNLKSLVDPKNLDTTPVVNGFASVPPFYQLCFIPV
# Sequence of Cytochrome P450 2C9 (P11712 whole entry): as above
# Sequence of CYP1A2 (P05177 whole entry): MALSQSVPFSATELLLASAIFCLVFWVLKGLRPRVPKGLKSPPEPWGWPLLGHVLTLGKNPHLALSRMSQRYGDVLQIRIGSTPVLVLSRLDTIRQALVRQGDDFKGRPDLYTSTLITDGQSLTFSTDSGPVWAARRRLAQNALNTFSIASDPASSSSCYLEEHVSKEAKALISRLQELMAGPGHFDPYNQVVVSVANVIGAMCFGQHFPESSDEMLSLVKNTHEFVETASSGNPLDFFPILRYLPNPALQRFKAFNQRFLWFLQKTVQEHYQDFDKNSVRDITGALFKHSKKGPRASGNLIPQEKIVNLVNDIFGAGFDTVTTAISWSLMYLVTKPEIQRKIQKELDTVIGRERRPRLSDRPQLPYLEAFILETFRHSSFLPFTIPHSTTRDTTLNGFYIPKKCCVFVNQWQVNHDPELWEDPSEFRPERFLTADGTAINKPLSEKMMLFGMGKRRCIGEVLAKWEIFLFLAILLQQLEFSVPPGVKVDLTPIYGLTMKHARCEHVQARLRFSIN
# Sequence of Dual specificity tyrosine-phosphorylation-regulated kinase 4 (Q9NR20 whole entry): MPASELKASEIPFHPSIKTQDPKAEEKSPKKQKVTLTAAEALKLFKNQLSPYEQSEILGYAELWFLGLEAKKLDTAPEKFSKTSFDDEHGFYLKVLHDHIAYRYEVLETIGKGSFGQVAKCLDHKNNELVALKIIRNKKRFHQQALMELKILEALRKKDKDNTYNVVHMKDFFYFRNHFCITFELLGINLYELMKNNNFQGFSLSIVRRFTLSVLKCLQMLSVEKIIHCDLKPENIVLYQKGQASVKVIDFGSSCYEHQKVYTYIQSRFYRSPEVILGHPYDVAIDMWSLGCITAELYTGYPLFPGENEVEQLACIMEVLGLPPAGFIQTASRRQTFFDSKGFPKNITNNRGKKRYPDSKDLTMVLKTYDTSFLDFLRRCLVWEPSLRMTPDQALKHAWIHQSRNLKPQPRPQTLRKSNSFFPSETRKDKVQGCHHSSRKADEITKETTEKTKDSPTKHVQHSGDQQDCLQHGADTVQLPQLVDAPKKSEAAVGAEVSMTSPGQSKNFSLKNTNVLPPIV
# Sequence of Glycogen synthase kinase-3 beta (P49841 whole entry): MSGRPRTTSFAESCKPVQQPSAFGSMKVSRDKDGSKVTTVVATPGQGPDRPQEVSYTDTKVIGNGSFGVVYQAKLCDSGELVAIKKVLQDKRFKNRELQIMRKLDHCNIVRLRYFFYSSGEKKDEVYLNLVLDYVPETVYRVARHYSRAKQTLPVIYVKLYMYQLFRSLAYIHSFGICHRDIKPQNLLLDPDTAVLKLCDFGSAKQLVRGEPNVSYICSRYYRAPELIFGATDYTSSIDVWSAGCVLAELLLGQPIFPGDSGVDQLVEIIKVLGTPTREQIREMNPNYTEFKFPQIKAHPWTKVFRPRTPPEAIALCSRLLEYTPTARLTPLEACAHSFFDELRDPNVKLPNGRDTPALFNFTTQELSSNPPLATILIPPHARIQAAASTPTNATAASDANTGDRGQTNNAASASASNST
# Sequence of Dual specificity protein kinase CLK1 (P49759 whole entry, looked up): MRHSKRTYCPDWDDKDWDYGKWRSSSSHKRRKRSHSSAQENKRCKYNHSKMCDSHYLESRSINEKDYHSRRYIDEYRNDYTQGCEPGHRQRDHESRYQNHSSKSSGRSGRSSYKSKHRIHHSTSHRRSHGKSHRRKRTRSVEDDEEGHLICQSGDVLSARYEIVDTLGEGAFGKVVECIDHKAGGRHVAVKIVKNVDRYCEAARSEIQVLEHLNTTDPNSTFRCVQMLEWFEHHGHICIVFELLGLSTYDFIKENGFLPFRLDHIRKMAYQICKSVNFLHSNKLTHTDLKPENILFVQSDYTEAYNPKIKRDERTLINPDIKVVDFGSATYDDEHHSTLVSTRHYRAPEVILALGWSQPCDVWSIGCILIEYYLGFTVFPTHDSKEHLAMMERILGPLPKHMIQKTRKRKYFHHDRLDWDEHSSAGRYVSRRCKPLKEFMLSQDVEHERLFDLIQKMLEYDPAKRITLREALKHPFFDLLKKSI
# Sequence of Cytochrome P450 2C19 (P33261 whole entry): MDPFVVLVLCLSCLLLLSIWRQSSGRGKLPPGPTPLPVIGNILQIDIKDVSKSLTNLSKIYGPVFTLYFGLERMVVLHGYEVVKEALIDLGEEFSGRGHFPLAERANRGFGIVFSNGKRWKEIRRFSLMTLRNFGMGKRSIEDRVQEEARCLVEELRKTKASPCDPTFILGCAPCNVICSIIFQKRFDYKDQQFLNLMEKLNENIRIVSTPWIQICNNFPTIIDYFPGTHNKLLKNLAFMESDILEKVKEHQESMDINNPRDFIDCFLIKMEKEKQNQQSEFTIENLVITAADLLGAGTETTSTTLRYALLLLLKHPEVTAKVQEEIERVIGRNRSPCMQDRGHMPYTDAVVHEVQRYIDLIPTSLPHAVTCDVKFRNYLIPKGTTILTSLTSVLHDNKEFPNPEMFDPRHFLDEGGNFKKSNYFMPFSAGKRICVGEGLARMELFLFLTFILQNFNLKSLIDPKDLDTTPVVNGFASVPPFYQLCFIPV
smiles,measurement,setting,value
Cc1ccc2c(-c3ccc4ncnc(N[C@H](CO)c5ccccc5)c4c3)c[nH]c2n1,IC50,[1],1420 nM
same,half-life at 2 µM,[2],> 3.33 h
same,"fraction unbound at 5 h, 1 µM",[3],0.0033
same,"Papp at 16 h, 10 µM",[4],13.4 ×10⁻⁶ cm/s
same,"Papp A→B at […], 5 µM",[5],2.67 ×10⁻⁶ cm/s
same,"inhibition at 40 min, 10 µM",CYP1A2,61.9%
same,"inhibition at 40 min, 10 µM",CYP2C9,96.5%
same,AUC(0-t) at 24 h,[6],2990 ng·h/mL
same,AUC(0-inf),[7],3010 ng·h/mL
same,MRT inf,[8],5.98 h
same,half-life,[9],2.95 h
same,half-life,[10],3.95 h
same,Cmax,[11],272 ng/mL
same,Cmax,[12],230 ng/mL
same,concentration at 1 h,[13],353 ng/mL
same,concentration at 4 h,[14],254 ng/mL
same,concentration at 1 h,[15],26.9 ng/g
same,concentration at 2 h,[16],16.8 ng/g
same,IC50,Cytochrome P450 2C9,240 nM
same,IC50,Cytochrome P450 2C19,1030 nM
same,IC50,[17],1.02 nM
same,IC50,[18],401 nM
same,IC50,[19],38.9 nM
same,inhibition,[20],99.5%
same,inhibition,[21],100%
same,Activity,HEK-293T,Non-Toxic
same,Activity,[22],Non-Toxic
same,Activity,[23],Non-Toxic
same,Activity,Mus musculus [24],Active
same,Activity,Mus musculus [25],Active
same,Activity,[26],Non-Toxic
same,Activity,[27],Non-Toxic
same,Activity,[28],Non-Toxic
same,Activity,[29],Non-Toxic
same,Activity,[30],Non-Toxic

# Source: ChEMBL document CHEMBL5550204, “Discovery of ZJCK-6-46: A Potent, Selective, and Orally Available Dual-Specificity Tyrosine Phosphorylation-Regulated Kinase 1A Inhibitor for the Treatment of Alzheimer's Disease” (J Med Chem, 2024)
